Reference: patent US9206156B2, “Substituted indole derivatives” (GRÜNENTHAL GMBH, priority 2008, dated 2015)

Legend:
human μ-opiate receptor = target: T1, human μ-opiate receptor (Homo sapiens, UniProt P35372); experiment: μ-opiate receptor binding assay with [3H] naloxone (WGA-SPA beads); settings: 1 μmol/l test substance, 1 nmol/l [3H] naloxone, CHO-K1 cell membranes expressing human μ-opiate receptor
T1 construct: purchased NEN, Zaventem, Belgium RB-HOM; host or cells: CHO-K1 cells (membrane preparation)
T1 sequence (P35372 whole entry): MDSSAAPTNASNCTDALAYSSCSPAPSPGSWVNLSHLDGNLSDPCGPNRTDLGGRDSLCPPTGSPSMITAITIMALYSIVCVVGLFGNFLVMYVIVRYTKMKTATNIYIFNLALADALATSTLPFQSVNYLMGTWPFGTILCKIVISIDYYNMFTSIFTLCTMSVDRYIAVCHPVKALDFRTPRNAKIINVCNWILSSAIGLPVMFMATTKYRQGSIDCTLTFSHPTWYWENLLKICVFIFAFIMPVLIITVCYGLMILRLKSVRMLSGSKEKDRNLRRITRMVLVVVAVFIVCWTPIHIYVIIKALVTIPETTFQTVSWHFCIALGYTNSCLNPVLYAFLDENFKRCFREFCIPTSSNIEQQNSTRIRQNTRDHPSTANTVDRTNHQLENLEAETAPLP
Experimental: The receptor affinity to the human μ-opiate receptor was determined in a homogeneous batch in microtitre plates. To this end, dilution series of the substituted indole derivative to be tested were incubated for 90 minutes at room temperature with a receptor membrane preparation (15-40 μg protein per 250 μl incubation batch) of CHO-K1 cells, which express the human μ-opiate receptor (RB—HOM receptor membrane preparation from NEN, Zaventem, Belgium), in the presence of 1 nmol/l of the radioactive ligand [^3H] naloxone (NET719, NEN, Zaventem, Belgium) and 1 mg of WGA-SPA beads (wheat germ agglutinin SPA beads from Amersham/Pharmacia, Freiburg, Germany) in a total volume of 250 μl. 50 mmol/l tris-HCl supplemented with 0.05 wt. % sodium azide and 0.06 wt. % bovine serum albumin were used as the incubation buffer. In order to determine the non-specific binding, 25 μmol/l of naloxone were also added. At the end of the ninety-minute incubation period the microtitre plates were centrifuged for 20 minutes at 1000 g and the radioactivity was measured in a β counter (Microbeta-Trilux, PerkinElmer Wallac, Freiburg, Germany). The percentage displacement of the radioactive ligand from its binding to the human μ-opiate receptor was determined at a test substance concentration of 1 μmol/l and stated as the percentage inhibition (% inhibition) of the specific binding. In some cases the percentage displacement due to differing concentrations of the compounds having the general formula I to be tested was used to calculate the IC50 inhibition concentrations which bring about a 50-percent displacement of the radioactive ligand. Ki values for the test substances were obtained by extrapolation using the Cheng-Prusoff equation.

ORL1 receptor = target: T2, ORL1 receptor (Homo sapiens, UniProt P41146); experiment: ORL1 receptor binding assay with 3H-nociceptin/orphanin FQ (WGA-SPA beads); settings: c=1 μM test substance; 0.5 nM 3H-nociceptin/orphanin FQ; membranes of recombinant CHO-ORL1 cells
T2 construct: expressed in transfected cells; host or cells: CHO (recombinant CHO-ORL1 cells), membranes
T2 sequence (P41146 whole entry): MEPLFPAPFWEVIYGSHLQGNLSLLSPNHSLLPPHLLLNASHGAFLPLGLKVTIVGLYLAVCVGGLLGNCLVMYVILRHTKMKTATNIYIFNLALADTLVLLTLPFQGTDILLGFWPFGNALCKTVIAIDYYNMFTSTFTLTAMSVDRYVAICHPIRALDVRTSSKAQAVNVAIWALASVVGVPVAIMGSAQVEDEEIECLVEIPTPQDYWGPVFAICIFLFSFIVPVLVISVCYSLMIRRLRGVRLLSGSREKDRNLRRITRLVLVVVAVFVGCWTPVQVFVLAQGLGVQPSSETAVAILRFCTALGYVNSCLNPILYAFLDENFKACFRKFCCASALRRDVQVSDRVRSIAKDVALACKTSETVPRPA
Experimental: Measurement of ORL1 Binding
The cyclohexane derivatives having the general formula I were investigated in a receptor binding assay with ^3H-nociceptin/orphanin FQ with membranes of recombinant CHO—ORL1 cells. This test system was conducted in accordance with the method described by Ardati et al. (Mol. Pharmacol., 51, 1997, p. 816-824). The concentration of ^3H-nociceptin/orphanin FQ in these tests was 0.5 nM. The binding assays were carried out with 20 μg amounts of membrane protein per 200 μl batch in 50 mM Hepes, pH 7.4, 10 mM MgCl2 and 1 mM EDTA. The binding to the ORL1 receptor was determined using 1 mg amounts of WGA-SPA beads (Amersham-Pharmacia, Freiburg, Germany), by incubation of the batch for one hour at room temperature and subsequent measurement in a Trilux scintillation counter (Wallac, Finland). The affinity is given in Table 1 as the nanomolar Ki value or in % inhibition at c=1 μM.

CN(C)C1(c2cccs2)CCN(C(=O)CNC(=O)c2ccc3ccn(C)c3c2)CC1 [Example 109, N-(2-(4-(dimethylamino)-4-(thiophen-2-yl)piperidin-1-yl)-2-oxoethyl)-1-methyl-1H-indole-6-carboxamide]
inhibition at 1 µM (human μ-opiate receptor): 81% | inhibition at 1 µM (ORL1 receptor): 61%

CCCCC1(N(C)C)CCN(CCN(C)C(=O)CCc2c[nH]c3ccccc23)CC1 [Example 60, N-(2-(4-Butyl-4-(dimethylamino)piperidin-1-yl)ethyl)-3-(1H-indol-3-yl)-N-methylpropanamide]
inhibition at 1 µM (human μ-opiate receptor): 81% | inhibition at 1 µM (ORL1 receptor): 45%

CN(C)C1(c2ccccc2)CCN(C(=O)C2CCCN(Cc3ccc4[nH]ccc4c3)C2)CC1 (stereo not drawn) [Example 148, (1-((1H-indol-5-yl)methyl)piperidin-3-yl)(4-(dimethylamino)-4-phenylpiperidin-1-yl)methanone]
inhibition at 1 µM (human μ-opiate receptor): 41% | inhibition at 1 µM (ORL1 receptor): 17%

Cc1c(CNCCN2CCC(c3cccs3)(N(C)C)CC2)c2ccccc2n1C [Example 80, 1-(2-((1,2-Dimethyl-1H-indol-3-yl)methylamino)ethyl)-N,N-dimethyl-4-(thiophen-2-yl)pipendin-4-amine]
inhibition at 1 µM (human μ-opiate receptor): 101% | inhibition at 1 µM (ORL1 receptor): 97%

CN(CCN1CCC(c2ccccc2)(N(C)C)CC1)Cc1c[nH]c2ccc(Br)cc12 [Example 185, 1-(2-(((5-bromo-1H-indol-3-yl)methyl)(methyl)amino)ethyl)-N,N-dimethyl-4-phenylpiperidin-4-amine]
inhibition at 1 µM (human μ-opiate receptor): 95% | inhibition at 1 µM (ORL1 receptor): 91%

CN(C)C1(c2ccccc2)CCN(C(=O)C2CN(Cc3ccc4cc[nH]c4c3)c3ccccc32)CC1 (stereo not drawn) [Example 170, (1-((1H-indol-6-yl)methyl)indolin-3-yl)(4-(dimethylamino)-4-phenylpiperidin-1-yl)methanone]
inhibition at 1 µM (human μ-opiate receptor): 80% | inhibition at 1 µM (ORL1 receptor): 38%

COc1ccc2[nH]c(C(=O)N(C)CCCN3CCC(c4ccccc4)(N(C)C)CC3)cc2c1 [Example 66, N-(3-(4-(Dimethylamino)-4-phenylpiperidin-1-yl)propyl)-5-methoxy-N-methyl-1H-indole-2-carboxamide]
inhibition at 1 µM (human μ-opiate receptor): 71% | inhibition at 1 µM (ORL1 receptor): 33%

CC(C)C(C(=O)N1CCC(c2ccccc2)(N(C)C)CC1)N(C)C(=O)CCc1cn(C)c2ccccc12 (stereo not drawn) [Example 132, N-(1-(4-(dimethylamino)-4-phenylpiperidin-1-yl)-3-methyl-1-oxobutan-2-yl)-N-methyl-3-(1-methyl-1H-indol-3-yl)propanamide]
inhibition at 1 µM (human μ-opiate receptor): 63% | inhibition at 1 µM (ORL1 receptor): 34%

CN(CCN1CCC(c2ccccc2)(N(C)C)CC1)Cc1cccc2[nH]ccc12 [Example 195, 1-(2-(((1H-indol-4-yl)methyl)(methy)amino)ethyl)-N,N-dimethyl-4-phenylpiperidin-4-amine]
% Inhibition (μ) at 1 μM (human μ-opiate receptor; 1 µM): 78% | % Inhibition (ORL1) at 1 μM (ORL1 receptor): 56%

CN(C)C1(c2ccccc2)CCN(C(=O)CCNCc2cccc3cc[nH]c23)CC1 [Example 171, 3-((1H-indol-7-yl)methylamino)-1-(4-(dimethylamino)-4-phenylpiperidin-1-yl)propan-1-one]
inhibition at 1 µM (human μ-opiate receptor): 97% | inhibition at 1 µM (ORL1 receptor): 73%

CCCCC1(N(C)C)CCN(CCN(C)C(=O)c2ccc3ccn(C)c3c2)CC1 [Example 38, N-(2-(4-Butyl-4-(dimethylamino)piperidin-1-yl)ethyl)-N,1-dimethyl-1H-indole-6-carboxamide]
inhibition at 1 µM (human μ-opiate receptor): 68%

CCCCC1(N(C)C)CCN(CCN(C)Cc2ccc3[nH]ccc3c2)CC1 [Example 141, 1-(2-(((1H-indol-5-yl)methyl)(methyl)amino)ethyl)-4-butyl-N,N-dimethylpiperidin-4-amine]
inhibition at 1 µM (human μ-opiate receptor): 82%

CN(CCN1CCC(c2ccccc2)(N2CCCC2)CC1)C(=O)c1c[nH]c2ccccc12 [Example 46, N-Methyl-N-(2-(4-phenyl-4-(pyrrolidin-1-yl)piperidin-1-yl)ethyl)-1H-indole-3-carboxamide]
inhibition at 1 µM (human μ-opiate receptor): 20%

COc1ccc2[nH]c(C(=O)N(C)CCN3CCC(c4ccccc4)(N4CCCC4)CC3)cc2c1 [Example 64, 5-Methoxy-N-methyl-N-(2-(4-phenyl-4-(pyrrolidin-1-yl)piperidin-1-yl)ethyl)-1H-indole-2-carboxamide]
inhibition at 1 µM (human μ-opiate receptor): 18%

CCCCC1(N(C)C)CCN(CCN(C)C(=O)c2cc3cc(OC)ccc3[nH]2)CC1 [Example 65, N-(2-(4-Butyl-4-(dimethylamino)piperidin-1-yl)ethyl)-5-methoxy-N-methyl-1H-indole-2-carboxamide]
inhibition at 1 µM (human μ-opiate receptor): 42%

CN(CCN1CCC(c2ccccc2)(N2CCCC2)CC1)Cc1cccc2[nH]ccc12 [Example 159, N-((1H-indol-4-yl)methyl)-N-methyl-2-(4-phenyl-4-(pyrrolidin-1-yl)piperidin-1-yl)ethanamine]
inhibition at 1 µM (human μ-opiate receptor): 64%

CN(CCN1CCC(c2ccccc2)(N2CCCC2)CC1)C(=O)CCc1cn(C)c2ccccc12 [Example 48, N-Methyl-3-(1-methyl-1H-indol-3-yl)-N-(2-(4-phenyl-4-(pyrrolidin-1-yl)piperidin-1-yl)ethyl)propanamide]
inhibition at 1 µM (human μ-opiate receptor): 14%

CCCCC1(N(C)C)CCN(CCN(C)C(=O)c2c[nH]c3ccccc23)CC1 [Example 47, N-(2-(4-Butyl-4-(dimethylamino)piperidin-1-yl)ethyl)-N-methyl-1H-indole-3-carboxamide]
inhibition at 1 µM (human μ-opiate receptor): 61%

CC(C)C(CC(=O)N(C)CCN1CCC(c2ccccc2)(N2CCCC2)CC1)c1c[nH]c2ccccc12 (stereo not drawn) [Example 32, 3-(1H-Indol-3-yl)-N,4-dimethyl-N-(2-(4-phenyl-4-(pyrrolidin-1-yl)piperidin-1-yl)ethyl)pentanamide]
inhibition at 1 µM (human μ-opiate receptor): 61%

CN(CCN1CCC(c2ccccc2)(N2CCCC2)CC1)C(=O)c1cccc2c1ccn2C [Example 40, N,1-Dimethyl-N-(2-(4-phenyl-4-(pyrrolidin-1-yl)piperidin-1-yl)ethyl)-1H-indole-4-carboxamide]
inhibition at 1 µM (human μ-opiate receptor): 40%

CCCCC1(N(C)C)CCN(CCN(C)C(=O)c2ccc3cc[nH]c3c2)CC1 [Example 55, N-(2-(4-Butyl-4-(dimethylamino)piperidin-1-yl)ethyl)-N-methyl-1H-indole-6-carboxamide]
inhibition at 1 µM (human μ-opiate receptor): 66%

CN(CCN1CCC(c2ccccc2)(N2CCCC2)CC1)C(=O)c1ccc2cc[nH]c2c1 [Example 54, N-Methyl-N-(2-(4-phenyl-4-(pyrrolidin-1-yl)piperidin-1-yl)ethyl)-1H-indole-6-carboxamide]
inhibition at 1 µM (human μ-opiate receptor): 15%

CN(CCN1CCC(c2ccccc2)(N2CCCC2)CC1)Cc1c[nH]c2ccccc12 [Example 137, N-((1H-indol-3-yl)methyl)-N-methyl-2-(4-phenyl-4-(pyrrolidin-1-yl)piperidin-1-yl)ethanamine]
inhibition at 1 µM (human μ-opiate receptor): 82%

CCCCC1(N(C)C)CCN(CCN(C)Cc2cccc3[nH]ccc23)CC1 [Example 160, 1-(2-(((1H-indol-4-yl)methyl)(methy)amino)ethyl)-4-butyl-N,N-dimethylpiperidin-4-amine]
% Inhibition (μ) at 1 μM (human μ-opiate receptor): 87%

CN(CCN1CCC(c2ccccc2)(N2CCCC2)CC1)Cc1c[nH]c2ccc(Br)cc12 [Example 153, N-((5-bromo-1H-indol-3-yl)methyl)-N-methyl-2-(4-phenyl-4-(pyrrolidin-1-yl)piperidin-1-yl)ethanamine]
inhibition at 1 µM (human μ-opiate receptor): 93%

CC(CC(=O)N(C)CCN1CCC(c2ccccc2)(N2CCCC2)CC1)c1c[nH]c2ccccc12 (stereo not drawn) [Example 57, 3-(1H-Indol-3-yl)-N-methyl-N-(2-(4-phenyl-4-(pyrrolidin-1-yl)piperidin-1-yl)ethyl)butanamide]
inhibition at 1 µM (human μ-opiate receptor): 45%
